Key:
[1] = test system: MET; test: MET biochemical kinase assay; set-up: species or system human; concentration or dose not given beside the values
How it was run: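 In this format, tyrosine phosphorylation of plate-captured human MET is followed in vitro after compound addition in ATP/divalent-cation buffer, detected by anti-phosphotyrosine-HRP with TMB substrate.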

[2] = biological target: T1, FLK-1 receptor (Mus musculus, UniProt P35918); test: FLK-1 ELISA (kinase activity of the FLK-1 receptor in FLK-1/NIH3T3 cells, VEGF stimulated); type: cell-based
T1 construct: expressed in transfected cells; host or cells: NIH3T3 C7#3
How it was run: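 NIH3T3 C7#3 cells expressing FLK-1 were seeded at 25.000 cells/well, serum-starved overnight in 0.1% FBS, then treated with compound for two hours at 37°C (final DMSO 0.5%) before VEGF stimulation. Receptor was captured on anti-rabbit IgG-coated ELISA plates bearing affinity-purified anti-FLK-1 antiserum.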

[3] = biological target: PDGF-R (Homo sapiens, UniProt P09619); test: PDGF-R ELISA; type: cell-based
Excerpt: A PDGF-R ELISA is described in International Patent Publication No. WO 96/40116, published December 19, 1996 by Tang et al.

T1 sequence (P35918 20-1345): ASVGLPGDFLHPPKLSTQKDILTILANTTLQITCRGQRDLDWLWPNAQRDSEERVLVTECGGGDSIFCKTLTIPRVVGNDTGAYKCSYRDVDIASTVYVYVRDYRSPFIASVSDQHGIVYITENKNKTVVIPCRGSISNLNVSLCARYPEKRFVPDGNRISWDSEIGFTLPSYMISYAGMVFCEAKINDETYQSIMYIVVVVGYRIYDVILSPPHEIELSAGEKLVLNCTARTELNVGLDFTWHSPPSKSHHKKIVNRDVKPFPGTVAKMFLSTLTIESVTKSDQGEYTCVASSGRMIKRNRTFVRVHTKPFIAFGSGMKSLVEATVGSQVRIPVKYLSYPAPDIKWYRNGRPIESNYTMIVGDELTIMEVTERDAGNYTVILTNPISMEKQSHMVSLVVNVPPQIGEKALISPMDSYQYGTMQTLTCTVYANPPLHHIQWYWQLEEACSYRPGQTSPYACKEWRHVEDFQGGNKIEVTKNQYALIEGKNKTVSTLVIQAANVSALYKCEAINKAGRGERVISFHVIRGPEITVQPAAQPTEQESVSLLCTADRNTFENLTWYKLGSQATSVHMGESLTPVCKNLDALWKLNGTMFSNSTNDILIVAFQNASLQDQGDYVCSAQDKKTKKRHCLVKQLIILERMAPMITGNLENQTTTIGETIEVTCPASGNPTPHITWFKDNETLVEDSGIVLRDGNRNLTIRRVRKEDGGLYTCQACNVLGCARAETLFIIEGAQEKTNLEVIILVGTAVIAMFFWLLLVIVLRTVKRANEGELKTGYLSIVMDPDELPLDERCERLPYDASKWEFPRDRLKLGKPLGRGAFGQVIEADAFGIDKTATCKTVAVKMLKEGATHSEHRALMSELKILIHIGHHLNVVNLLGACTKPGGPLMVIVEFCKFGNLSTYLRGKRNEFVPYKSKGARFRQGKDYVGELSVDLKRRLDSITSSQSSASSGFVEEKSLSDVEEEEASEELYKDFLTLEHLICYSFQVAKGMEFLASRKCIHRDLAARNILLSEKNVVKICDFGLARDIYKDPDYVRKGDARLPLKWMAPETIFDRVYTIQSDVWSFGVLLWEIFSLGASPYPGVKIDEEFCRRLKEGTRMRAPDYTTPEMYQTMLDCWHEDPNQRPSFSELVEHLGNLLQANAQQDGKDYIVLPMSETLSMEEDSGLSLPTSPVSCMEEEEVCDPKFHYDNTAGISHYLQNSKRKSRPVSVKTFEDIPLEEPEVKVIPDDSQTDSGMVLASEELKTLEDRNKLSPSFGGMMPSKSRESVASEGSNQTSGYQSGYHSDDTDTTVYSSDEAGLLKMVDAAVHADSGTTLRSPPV
Sequence of PDGF-R (P09619 33-1106, species assumed): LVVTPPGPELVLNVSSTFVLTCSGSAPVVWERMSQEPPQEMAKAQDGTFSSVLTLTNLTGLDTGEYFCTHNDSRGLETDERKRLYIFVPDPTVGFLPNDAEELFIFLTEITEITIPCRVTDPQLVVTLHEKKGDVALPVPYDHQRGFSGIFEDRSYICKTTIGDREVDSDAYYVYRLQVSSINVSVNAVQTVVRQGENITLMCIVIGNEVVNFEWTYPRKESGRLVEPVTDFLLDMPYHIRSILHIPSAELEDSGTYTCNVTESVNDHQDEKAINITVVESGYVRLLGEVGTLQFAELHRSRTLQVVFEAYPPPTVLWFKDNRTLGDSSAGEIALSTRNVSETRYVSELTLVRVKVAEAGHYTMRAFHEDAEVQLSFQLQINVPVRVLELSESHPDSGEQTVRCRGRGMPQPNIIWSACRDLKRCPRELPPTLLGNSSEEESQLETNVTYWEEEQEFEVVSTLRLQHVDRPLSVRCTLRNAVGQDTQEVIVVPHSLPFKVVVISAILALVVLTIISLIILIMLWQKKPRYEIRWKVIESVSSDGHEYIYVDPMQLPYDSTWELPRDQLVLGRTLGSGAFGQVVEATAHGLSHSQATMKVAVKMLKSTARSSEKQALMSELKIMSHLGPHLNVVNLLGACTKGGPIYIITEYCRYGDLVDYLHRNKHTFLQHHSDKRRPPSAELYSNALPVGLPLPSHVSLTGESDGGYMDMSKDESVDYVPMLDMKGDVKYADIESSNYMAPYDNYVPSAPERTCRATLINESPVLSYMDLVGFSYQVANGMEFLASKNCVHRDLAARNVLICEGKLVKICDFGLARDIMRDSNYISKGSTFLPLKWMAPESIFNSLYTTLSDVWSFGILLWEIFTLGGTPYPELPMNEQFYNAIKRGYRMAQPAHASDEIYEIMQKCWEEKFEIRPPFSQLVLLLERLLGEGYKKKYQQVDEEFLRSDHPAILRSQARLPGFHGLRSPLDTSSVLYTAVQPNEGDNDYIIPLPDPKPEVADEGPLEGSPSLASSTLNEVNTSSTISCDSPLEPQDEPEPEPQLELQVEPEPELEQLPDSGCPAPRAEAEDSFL

SMILES	Met Kinase % Inhibition [1] [%]	Fik Kinase %Inhibition [2] [%]	PDGF Kinase %Inhibition [3] [%]
O=C1Nc2c(Br)cc(Br)cc2C1=Cc1c[nH]c2ccccc12 [10717/A06]	31.7	-10.8	
Cn1cccc1C=C1C(=O)Nc2ccc(CCCl)cc21 [10717/G04]	10.9	0.8	
O=C1Nc2ccc(CCCl)cc2C1=Cc1ccc(F)cc1 [10717/G05]	4.7	5.3	
O=C1Nc2ccc(CCCl)cc2C1=Cc1c[nH]c2ccccc12 [10717/G06]	34.0	4.3	
Cc1ccc(C=C2C(=O)Nc3ccc(CCCl)cc32)s1 [10717/G07]	7.5	-17.0	
O=C1Nc2ccc(CCCl)cc2C1=Cc1ccc(Br)cc1 [10717/G08]	10.9	1.9	
O=C1Nc2ccc(CCCl)cc2C1=Cc1ccc[nH]1 [10717/G09]	19.1	-29.7	
COc1cccc(O)c1C=C1C(=O)Nc2ccc(CCCl)cc21 [10717/G10]	30.9	4.8	
Cc1c(Br)ccc2c1C(=C1C(=O)Nc3ccc(F)cc31)C(=O)N2 [10726/C08]	46.8	3.4	21.4
Cc1c(Br)ccc2c1C(=C1C(=O)Nc3ccccc31)C(=O)N2 [10726/C09]	48.5	12.9	26.5
CCc1ccc(C=C2C(=O)Nc3ccc(Br)c(C)c32)s1 [10726/C10]	36.7	5.5	16.4
COc1ccc(C=C2C(=O)Nc3ccc(Br)c(C)c32)cc1 [10726/C11]	34.7	-32.2	51.1
CCOC(=O)c1[nH]c(C=C2C(=O)Nc3ccc(S(=O)(=O)NC)cc32)c(C(=O)OC)c1C [10726/D03]	52.1	21.6	21.4
CNS(=O)(=O)c1ccc2c(c1)C(=Cc1cc(C)c(O)c(C(C)(C)C)c1)C(=O)N2 [10726/D04]	62.9	7.8	34.1
CNS(=O)(=O)c1ccc2c(c1)C(=Cc1ccc(Br)o1)C(=O)N2 [10726/D05]	51.2	8.2	39.1
CNS(=O)(=O)c1ccc2c(c1)C(=Cc1cn(C)cc1C)C(=O)N2 [10726/D06]	42.8	16.3	28.4
CNS(=O)(=O)c1ccc2c(c1)C(=Cc1cc(O)c3c(c1O)CCCC3)C(=O)N2 [10726/D07]	84.6	-26.9	-81.0
CNS(=O)(=O)c1ccc2c(c1)C(=C1C(=O)Nc3ccc(F)cc31)C(=O)N2 [10726/D08]	39.5	12.1	22.1
CNS(=O)(=O)c1ccc2c(c1)C(=C1C(=O)Nc3ccccc31)C(=O)N2 [10726/D09]	45.7	14.4	22.1
CCc1ccc(C=C2C(=O)Nc3ccc(S(=O)(=O)NC)cc32)s1 [10726/D10]	35.3	14.7	32.2
CNS(=O)(=O)c1ccc2c(c1)C(=Cc1ccc(OC)cc1)C(=O)N2 [10726/D11]	9.6	10.5	30.9
CCOC(=O)c1[nH]c(C=C2C(=O)Nc3ccc(S(=O)(=O)Nc4ccc(C(F)(F)F)cc4)cc32)c(C(=O)OC)c1C [10726/E03]	62.4	-5.5	20.2
